Results: article PMC11990805, “Investigation of Anticancer Peptides Derived from Arca Species Using In Silico Analysis” (Molecules, 2025)
Residues, ends and D or L forms follow the SMILES beside them. No end group written: not given here.

Assay: Hemolysis assay
Format: cell-based
Conditions: sheep; 2% (v/v) erythrocyte suspension, 0.05-1 mg/mL, 37 °C 30 min; read-out: hemolysis rate
Protocol: The hemolytic activity was evaluated using a modified reference method. Briefly, sheep erythrocytes were isolated by centrifugation at 1000× g for 5 min following washing with physiological saline. The washing procedure was repeated until the supernatant became colorless, and the erythrocyte pellet was collected. A 2% (v/v) erythrocyte suspension was prepared in physiological saline. Aliquots (1 mL) of the suspension were incubated with peptide solutions (KW, WQIWYK, […]) at concentrations of 0.05, 0.1, 0.5, and 1 mg/mL. Experimental controls included 0.1% Triton X-100 (positive control) and sterile PBS (negative control). Following incubation at 37 °C for 30 min, samples were centrifuged at 1000× g for 5 min. Hemoglobin release was quantified by measuring the absorbance of 200 μL supernatant at 425 nm using a microplate reader. The hemolysis percentage was calculated as follows:Hemolysis (%) = (As − AN)/(AP − AN) × 100 where As, AN, and AP represent the absorbance values of the sample, negative control, and positive control, respectively.

Compound | hemolysis at 30 min
NCCCC[C@H](N)C(=O)N[C@@H](Cc1c[nH]c2ccccc12)C(=O)O [KW] (H-Lys-Trp-OH; N-terminus and C-terminus assumed) | < 5%
WQIWYK [WQIWYK] | < 5%
